{"source": "patent US6784186B1", "about": "(priority 1998, dated 2004)", "key": {"[1]": {"test_system": "μ opiate receptor", "design": "species or system guinea-pig"}, "[2]": {"test": "Formalin-induced hind paw licking test (mouse analgesia model)", "type": "in vivo, ICR derived male mice", "settings": "for % Reduction in Hind Paw Licking time: given one hour before subplantar formalin, licking time recorded during the following 20 to 30 minute period"}, "[3]": {"test": "PQ-induced writhing test (mouse analgesia model)", "type": "in vivo, ICR derived male mice", "settings": "for % Reduction in Writhes: given 30 minutes before PQ (2 mg/kg), writhes 5 to 10 minutes after PQ"}, "[4]": {"settings": "in vivo"}}, "note": "Several values for one entry are separate records, joined by “and”; a condition that tells them apart may be missing. Equal values may be shown once. Read-outs that look alike come from different tables or passages of the source.", "data": [{"smiles": "N=C(N)N1CC[C@]23c4c5ccc(O)c4O[C@H]2[C@@H](O)C=CC3[C@H]1C5", "note": "(stereo partly drawn) [KRS-2-19, (5α,6α)-7,8-didehydro-4,5-epoxy-17-N-(2-carboxamidino)-morphinan-3,6, -diol]", "values": [{"measurement": "agonist character (full / partial)", "setting": "[1]", "result": "only partial morphine agonist activity"}]}, {"smiles": "COc1ccc2c3c1O[C@H]1[C@@H](O)C=CC4[C@@H](C2)N(CCC(=N)N)CC[C@@]341", "note": "(stereo partly drawn) [KRS-2-63, 5α,6α-7,8-didehydro-4,5-epoxy-3-methoxy-17-N-[(2-aminoiminomethyl)ethyl]morphinan]", "values": [{"measurement": "agonist character (full / partial)", "setting": "[1]", "result": "partial agonist activity"}]}, {"smiles": "N=C(N)CCN1CC[C@]23c4c5ccc(O)c4O[C@H]2[C@@H](O)C=CC3[C@H]1C5", "note": "(stereo partly drawn) [KRS-41, (5α,6α)-7,8-didehydro-4,5-epoxy-17-N-[(2-aminoiminomethyl)ethyl]-morphinan-3,6-diol]", "values": [{"measurement": "% Reduction in Hind Paw Licking time", "setting": "[2]; 10 mg/kg", "result": 12, "unit": "%"}, {"measurement": "% Reduction in Hind Paw Licking time", "setting": "[2]; 30 mg/kg", "result": 75, "unit": "%"}, {"measurement": "analgesic activity at multiple of the morphine concentration", "setting": "[2]; formalin test, relative to morphine", "result": "3 times the morphine concentration"}, {"measurement": "% Reduction in Writhes", "setting": "[3]; 3 mg/kg", "result": 18, "unit": "%"}, {"measurement": "% Reduction in Writhes", "setting": "[3]; 15 mg/kg", "result": 93, "unit": "%"}, {"measurement": "analgesic activity at multiple of the morphine concentration", "setting": "[3]; PQ writhing test, relative to morphine", "result": "5 times the morphine concentration"}, {"measurement": "opiate activity in stimulated ileum compared to standard", "setting": "[1]", "result": "excellent activity compared to morphine"}, {"measurement": "Corneal reflex", "setting": "[4]; 30 mg/kg", "result": "4.9 ± 0.1"}, {"measurement": "Grip strength", "setting": "[4]; 30 mg/kg", "result": "5.1 ± 0.4"}, {"measurement": "Positional Passivity", "setting": "[4]; 30 mg/kg", "result": "4.7 ± 0.3"}, {"measurement": "Respiratory rate", "setting": "[4]; 30 mg/kg", "result": "5.1 ± 0.2"}, {"measurement": "Tail elevation", "setting": "[4]; 30 mg/kg", "result": "2.0 ± 0.4"}]}, {"smiles": "CN1CC[C@]23c4c5ccc(O)c4O[C@H]2[C@@H](O)C=C[C@H]3[C@H]1C5.Cl", "note": "[Morphine HCl, reference compound]", "values": [{"measurement": "% Reduction in Hind Paw Licking time", "setting": "[2]; 10 mg/kg", "result": 100, "unit": "%"}, {"measurement": "% Reduction in Writhes", "setting": "[3]; 3 mg/kg, HCl", "result": "87% and 73%"}]}, {"smiles": "CN1CC[C@]23c4c5ccc(O)c4O[C@H]2[C@@H](O)C=C[C@H]3[C@H]1C5", "note": "[Morphine, reference compound]", "values": [{"measurement": "Corneal reflex", "setting": "[4]; 10 mg/kg", "result": "2.9 ± 0.2"}, {"measurement": "Grip strength", "setting": "[4]; 10 mg/kg", "result": "3.7 ± 0.3"}, {"measurement": "Positional Passivity", "setting": "[4]; 10 mg/kg", "result": "8.7 ± 0.4"}, {"measurement": "Respiratory rate", "setting": "[4]; 10 mg/kg", "result": "4.1 ± 0.3"}, {"measurement": "Tail elevation", "setting": "[4]; 10 mg/kg", "result": "7.0 ± 0.7"}]}]}
